For data set [1] the following is noted: in olive or corn oil; cited from earlier work.
The nature of another data set: physchem. The conditions noted are these: organic solvent or mixture, thermodynamic from solid.

Molecules are shown by their SMILES. Converted amounts (≈) assume the structure as drawn. Like-named read-outs stand apart in the source and are kept apart here.

For `COc1ccc2c(c1)c(CC(=O)O)c(C)n2C(=O)c1ccc(Cl)cc1` [Indomethacin], the results for the solubility result (in data set [1]; in the data set “physchem” (maximum solubility)) were “below 0.2%” and 160 mg/mL (≈ 447 mM), respectively.
In the case of `CN1C(C(=O)Nc2ccccn2)=C(O)c2ccccc2S1(=O)=O` [Piroxicam], the figures for the solubility result (in data set [1]; in “physchem” (solubility)) were “below 0.05%” and 2.9 to 3.2 mg/mL (≈ 8.75 to 9.66 mM), respectively.
